Experimental data published in ChEMBL document CHEMBL3046012, “Synthesis and Cytotoxic Activity of 6-(Substituted-Phenyl)Amino-5,8-Quinazolinediones” (Med Chem Res, 2004).
Converted amounts (≈) assume the structure as drawn.

Legend:
Type in all cases: functional, cell-based
[1] = tested on: HCT-15; experiment: Cytotoxicity against Homo sapiens (human) HCT15 cells after 72 hr by MTT assay; conditions: HCT-15, 72 h
[2] = tested on: SK-OV-3; experiment: Cytotoxicity against Homo sapiens (human) SKOV3 cells after 72 hr by MTT assay; conditions: SK-OV-3, 72 h
[3] = tested on: XF498; experiment: Cytotoxicity against Homo sapiens (human) XF498 cells after 72 hr by MTT assay; conditions: XF498, 72 h
[4] = tested on: SK-MEL-2; experiment: Cytotoxicity against Homo sapiens (human) SK-MEL-2 cells after 72 hr by MTT assay; conditions: SK-MEL-2, 72 h
[5] = tested on: A549; experiment: Cytotoxicity against Homo sapiens (human) A549 cells after 72 hr by MTT assay; conditions: A549, 72 h

SMILES	IC50 [1] [mg/L]	IC50 [2] [mg/L]	IC50 [3] [mg/L]	IC50 [4] [mg/L]	IC50 [5] [mg/L]
O=C1C(Cl)=C(Nc2ccc(Cl)cc2)C(=O)c2cnccc21	0.18 (≈ 0.564 µM)	0.97 (≈ 3.04 µM)	1.28 (≈ 4.01 µM)	0.66 (≈ 2.07 µM)	1.1 (≈ 3.45 µM)
O=C1C(Cl)=C(Nc2ccc(I)cc2)C(=O)c2cnccc21	0.01 (≈ 0.0244 µM)	0.04 (≈ 0.0974 µM)	0.04 (≈ 0.0974 µM)	0.02 (≈ 0.0487 µM)	0.27 (≈ 0.658 µM)
O=C1C(Cl)=C(Nc2ccc(F)cc2)C(=O)c2cnccc21	0.31 (≈ 1.02 µM)	1.86 (≈ 6.14 µM)	1.54 (≈ 5.09 µM)	1.22 (≈ 4.03 µM)	1.27 (≈ 4.2 µM)
O=C1C(Cl)=C(Nc2ccc(Br)cc2)C(=O)c2cnccc21	0.1 (≈ 0.275 µM)	0.29 (≈ 0.798 µM)	0.22 (≈ 0.605 µM)	0.23 (≈ 0.633 µM)	1.96 (≈ 5.39 µM)
O=C1C(Nc2ccccc2)=C(Cl)C(=O)c2ncncc21	0.03 (≈ 0.105 µM)	0.19 (≈ 0.665 µM)	0.28 (≈ 0.98 µM)	0.04 (≈ 0.14 µM)	0.33 (≈ 1.16 µM)
Cc1ccc(NC2=C(Cl)C(=O)c3ncccc3C2=O)cc1	0.33 (≈ 1.1 µM)	1.27 (≈ 4.25 µM)	1.26 (≈ 4.22 µM)	0.42 (≈ 1.41 µM)	1.14 (≈ 3.82 µM)
O=C1C(Nc2ccc(F)cc2)=C(Cl)C(=O)c2ncncc21	0.04 (≈ 0.132 µM)	0.27 (≈ 0.889 µM)	0.19 (≈ 0.626 µM)	0.08 (≈ 0.263 µM)	0.33 (≈ 1.09 µM)
O=C1C(Nc2ccc(Cl)cc2)=C(Cl)C(=O)c2ncncc21	0.29 (≈ 0.906 µM)	0.31 (≈ 0.968 µM)	0.4 (≈ 1.25 µM)	0.3 (≈ 0.937 µM)	0.3 (≈ 0.937 µM)
O=C1C(Nc2ccc(OC(F)(F)F)cc2)=C(Cl)C(=O)c2ncncc21	0.22 (≈ 0.595 µM)	0.27 (≈ 0.73 µM)	0.23 (≈ 0.622 µM)	0.29 (≈ 0.784 µM)	0.37 (≈ 1 µM)
O=C1C(Nc2ccc(I)cc2)=C(Cl)C(=O)c2ncncc21	0.28 (≈ 0.68 µM)	0.27 (≈ 0.656 µM)	1.33 (≈ 3.23 µM)	0.3 (≈ 0.729 µM)	1.51 (≈ 3.67 µM)
CCOc1ccc(NC2=C(Cl)C(=O)c3ncncc3C2=O)cc1	0.04 (≈ 0.121 µM)	0.22 (≈ 0.667 µM)	0.3 (≈ 0.91 µM)	0.08 (≈ 0.243 µM)	0.33 (≈ 1 µM)
O=C1C(Nc2ccc(C(F)(F)F)cc2)=C(Cl)C(=O)c2ncncc21	0.03 (≈ 0.0848 µM)	0.21 (≈ 0.594 µM)	0.29 (≈ 0.82 µM)	0.06 (≈ 0.17 µM)	0.32 (≈ 0.905 µM)
N#Cc1ccc(NC2=C(Cl)C(=O)c3ncncc3C2=O)cc1	0.24 (≈ 0.772 µM)	0.31 (≈ 0.998 µM)	1.68 (≈ 5.41 µM)	0.62 (≈ 2 µM)	1.34 (≈ 4.31 µM)
O=C1C(Nc2ccc([N+](=O)[O-])cc2)=C(Cl)C(=O)c2ncncc21	0.3 (≈ 0.907 µM)	1.28 (≈ 3.87 µM)	15.4 (≈ 46.4 µM)	0.61 (≈ 1.84 µM)	2.77 (≈ 8.38 µM)
O=C1C(Nc2ccccc2)=CC(=O)c2ncncc21	0.01 (≈ 0.0398 µM)	< 0.01	0.01 (≈ 0.0398 µM)	0.01 (≈ 0.0398 µM)	0.02 (≈ 0.0796 µM)
O=C1C(Nc2ccc(F)cc2)=CC(=O)c2ncncc21	0.02 (≈ 0.0743 µM)	0.07 (≈ 0.26 µM)	0.04 (≈ 0.149 µM)	0.05 (≈ 0.186 µM)	1.08 (≈ 4.01 µM)
O=C1C(Nc2ccc(Cl)cc2)=CC(=O)c2ncncc21	< 0.01	0.01 (≈ 0.035 µM)	0.01 (≈ 0.035 µM)	0.01 (≈ 0.035 µM)	0.02 (≈ 0.07 µM)
O=C1C(Nc2ccc(Br)cc2)=CC(=O)c2ncncc21	0.01 (≈ 0.0303 µM)	0.02 (≈ 0.0606 µM)	0.03 (≈ 0.0909 µM)	0.02 (≈ 0.0606 µM)	0.09 (≈ 0.273 µM)
O=C1C(Nc2ccc(I)cc2)=CC(=O)c2ncncc21	0.01 (≈ 0.0265 µM)	0.04 (≈ 0.106 µM)	0.04 (≈ 0.106 µM)	0.02 (≈ 0.053 µM)	0.27 (≈ 0.716 µM)
CCOc1ccc(NC2=CC(=O)c3ncncc3C2=O)cc1	0.02 (≈ 0.0677 µM)	0.02 (≈ 0.0677 µM)	0.03 (≈ 0.102 µM)	0.02 (≈ 0.0677 µM)	0.16 (≈ 0.542 µM)
Cc1ccc(NC2=CC(=O)c3ncncc3C2=O)cc1	0.01 (≈ 0.0377 µM)	0.03 (≈ 0.113 µM)	0.13 (≈ 0.49 µM)	0.02 (≈ 0.0754 µM)	0.02 (≈ 0.0754 µM)
O=C1C(Nc2ccccc2)=C(Cl)C(=O)c2ncccc21	0.74 (≈ 2.6 µM)	1.34 (≈ 4.71 µM)	1.33 (≈ 4.67 µM)	1.42 (≈ 4.99 µM)	2.3 (≈ 8.08 µM)
O=C1C(Nc2ccc(F)cc2)=C(Cl)C(=O)c2ncccc21	0.18 (≈ 0.595 µM)	0.5 (≈ 1.65 µM)	0.36 (≈ 1.19 µM)	1.39 (≈ 4.59 µM)	1.25 (≈ 4.13 µM)
O=C1C(Nc2ccc(Cl)cc2)=C(Cl)C(=O)c2ncccc21	0.34 (≈ 1.07 µM)	1.33 (≈ 4.17 µM)	3.31 (≈ 10.4 µM)	1.3 (≈ 4.07 µM)	5.03 (≈ 15.8 µM)
O=C1C(Nc2ccc(Br)cc2)=C(Cl)C(=O)c2ncccc21	0.34 (≈ 0.935 µM)	0.92 (≈ 2.53 µM)	2.83 (≈ 7.78 µM)	1.26 (≈ 3.47 µM)	4.28 (≈ 11.8 µM)
O=C1C(Nc2ccc(I)cc2)=C(Cl)C(=O)c2ncccc21	1.27 (≈ 3.09 µM)	1.62 (≈ 3.95 µM)	3.61 (≈ 8.79 µM)	3.3 (≈ 8.04 µM)	4.29 (≈ 10.4 µM)
